Data from ChEMBL document CHEMBL1201862, “PubChem BioAssay data set” (2004).
Active and inactive are the calls of the source.

Experiments:
[1] = target: Delta-type opioid receptor (Homo sapiens, UniProt P41143); test: Counterscreen for agonists of heterodimerization of the mu 1 (OPRM1) and delta 1 (OPRD1) opioid receptors: Luminescence-based cell-based high throughput dose response assay to identify agonists of OPRD1 homodimerization. [Related pubchem assays (depositor defined):AID504326, AID504355, AID504692, AID504904, AID504905]; format: functional
Chain of Delta-type opioid receptor (P41143 whole entry): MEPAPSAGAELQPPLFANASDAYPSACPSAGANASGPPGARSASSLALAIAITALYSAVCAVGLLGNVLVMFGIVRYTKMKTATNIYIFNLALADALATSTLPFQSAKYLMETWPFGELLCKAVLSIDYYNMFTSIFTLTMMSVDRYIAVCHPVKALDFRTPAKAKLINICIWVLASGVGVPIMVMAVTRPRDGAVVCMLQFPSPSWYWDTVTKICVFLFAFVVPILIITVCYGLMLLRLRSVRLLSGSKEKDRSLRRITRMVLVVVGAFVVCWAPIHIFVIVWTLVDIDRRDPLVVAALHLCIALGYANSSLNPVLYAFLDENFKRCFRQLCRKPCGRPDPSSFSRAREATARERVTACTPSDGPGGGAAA

Mu-type opioid receptor = Mu-type opioid receptor (Homo sapiens, UniProt P35372); test: Counterscreen for agonists of heterodimerization of the mu 1 (OPRM1) and delta 1 (OPRD1) opioid receptors: Luminescence-based cell-based high throughput dose response assay to identify agonists of OPRM1 homodimerization.; format: functional;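 note: U2OS cells expressing OPRM1 and beta-arrestin as split beta-galactosidase partners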
Chain of Mu-type opioid receptor (P35372 whole entry): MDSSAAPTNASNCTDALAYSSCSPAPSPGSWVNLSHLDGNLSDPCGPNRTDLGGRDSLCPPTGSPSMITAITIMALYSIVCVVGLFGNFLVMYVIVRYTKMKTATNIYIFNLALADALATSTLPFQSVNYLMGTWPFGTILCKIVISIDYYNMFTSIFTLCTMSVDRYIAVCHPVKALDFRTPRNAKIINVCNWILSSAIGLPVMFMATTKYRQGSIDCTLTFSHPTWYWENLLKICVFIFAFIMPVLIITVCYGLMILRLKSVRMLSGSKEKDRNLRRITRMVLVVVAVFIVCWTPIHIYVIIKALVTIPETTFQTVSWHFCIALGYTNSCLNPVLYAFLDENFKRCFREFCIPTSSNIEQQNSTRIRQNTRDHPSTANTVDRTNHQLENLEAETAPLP

[2] = target: 5-hydroxytryptamine receptor 5A (Homo sapiens, UniProt P47898); test: Counterscreen for agonists of OPRM1-OPRD1 heterodimerization: luminescence-based cell-based high throughput dose response assay to identify agonists of 5-hydroxytryptamine (serotonin) 5A receptor (HTR5A). [Related pubchem assays (depositor defined):AID504326, AID504355, AID504692, AID504904, AID504905]; format: functional
Chain of 5-hydroxytryptamine receptor 5A (P47898 whole entry): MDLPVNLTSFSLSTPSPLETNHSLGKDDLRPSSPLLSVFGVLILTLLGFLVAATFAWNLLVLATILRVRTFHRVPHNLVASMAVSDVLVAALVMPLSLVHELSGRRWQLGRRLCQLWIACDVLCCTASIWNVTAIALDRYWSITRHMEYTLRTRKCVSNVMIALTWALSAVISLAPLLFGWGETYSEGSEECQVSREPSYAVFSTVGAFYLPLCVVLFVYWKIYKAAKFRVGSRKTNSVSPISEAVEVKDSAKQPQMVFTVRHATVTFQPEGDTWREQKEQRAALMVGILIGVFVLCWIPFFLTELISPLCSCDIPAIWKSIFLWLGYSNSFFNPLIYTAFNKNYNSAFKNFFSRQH

Cytochrome P450 2C9 = Cytochrome P450 2C9 (Homo sapiens, UniProt P11712)
Chain of Cytochrome P450 2C9 (P11712 whole entry): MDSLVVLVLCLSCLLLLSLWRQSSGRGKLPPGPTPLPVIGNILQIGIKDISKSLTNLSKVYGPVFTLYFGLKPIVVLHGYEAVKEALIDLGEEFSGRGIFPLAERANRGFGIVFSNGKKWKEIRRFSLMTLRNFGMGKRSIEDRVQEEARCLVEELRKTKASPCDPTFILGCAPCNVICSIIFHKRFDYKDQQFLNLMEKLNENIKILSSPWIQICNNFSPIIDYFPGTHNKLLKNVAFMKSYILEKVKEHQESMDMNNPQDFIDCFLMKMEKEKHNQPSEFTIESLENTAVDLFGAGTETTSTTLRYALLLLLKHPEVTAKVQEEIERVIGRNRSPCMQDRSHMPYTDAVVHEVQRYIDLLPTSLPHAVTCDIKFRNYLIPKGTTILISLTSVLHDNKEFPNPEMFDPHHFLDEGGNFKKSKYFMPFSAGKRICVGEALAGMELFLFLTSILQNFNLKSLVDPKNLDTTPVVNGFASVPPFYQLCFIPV

Bcl-2-related protein A1 = target: T1, Bcl-2-related protein A1 (Mus musculus, UniProt Q07440); format: functional;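 note: confirmatory dose–response counterscreen on Bfl-1, used to check hits from a UBC13 polyubiquitin inhibitor campaign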
T1 sequence (Q07440 whole entry): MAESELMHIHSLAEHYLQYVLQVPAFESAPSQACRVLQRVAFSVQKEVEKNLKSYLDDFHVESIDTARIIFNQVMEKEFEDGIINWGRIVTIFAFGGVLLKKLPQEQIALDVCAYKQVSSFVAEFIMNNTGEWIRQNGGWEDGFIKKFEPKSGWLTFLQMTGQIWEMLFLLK

[3] = target: T2, Ubiquitin-conjugating enzyme E2 N (Homo sapiens, UniProt P61088); format: functional
T2 sequence (P61088 whole entry): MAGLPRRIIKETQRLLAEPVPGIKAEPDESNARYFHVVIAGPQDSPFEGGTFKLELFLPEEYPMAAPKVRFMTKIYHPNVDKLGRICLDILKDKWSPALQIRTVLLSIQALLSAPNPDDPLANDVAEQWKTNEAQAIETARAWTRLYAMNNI

[4] = target: T2, Ubiquitin-conjugating enzyme E2 N; format: functional; remark: listed apart in the source
[5] = target: T3, RNA-binding protein pos-1 (Caenorhabditis elegans, UniProt G5EF15); test: disruptors of C. elegans POS-1 RNA interaction – biochemical, fluorescence polarization, dose response (AID 1964);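 note: purified POS-1 fused to maltose binding protein made in E. coli; potency of compounds blocking POS-1 binding to fluorescent RNA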
T3 sequence (G5EF15 whole entry): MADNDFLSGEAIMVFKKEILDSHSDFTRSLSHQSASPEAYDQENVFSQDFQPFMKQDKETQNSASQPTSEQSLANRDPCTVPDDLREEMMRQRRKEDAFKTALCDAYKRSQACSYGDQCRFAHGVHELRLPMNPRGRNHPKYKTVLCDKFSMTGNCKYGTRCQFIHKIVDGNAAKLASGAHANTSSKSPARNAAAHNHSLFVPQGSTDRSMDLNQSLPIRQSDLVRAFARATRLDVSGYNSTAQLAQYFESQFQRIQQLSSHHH

[6] = system: Streptococcus sp. 'group A'; test: Streptococcus pyogenes SK(-)GAS viability under kanamycin – luminescence, BacTiterGlo, confirmation, counter-screen for streptokinase expression inhibitor project, dose response (AID 1900); format: functional, organism-based
[7] = A Cell Based Secondary Assay To Explore Cytotoxicity of Compounds that Sensitize Mycobacterium Tuberculosis to Beta-Lactam Antibiotics.; format: functional
[8] = target: T4, Zinc finger protein mex-5 (Caenorhabditis elegans, UniProt Q9XUB2); test: potency of MEX-5 RNA-binding blockers – biochemical, C. elegans, fluorescence polarization, dose response (AID 1960)
T4 sequence (Q9XUB2 whole entry): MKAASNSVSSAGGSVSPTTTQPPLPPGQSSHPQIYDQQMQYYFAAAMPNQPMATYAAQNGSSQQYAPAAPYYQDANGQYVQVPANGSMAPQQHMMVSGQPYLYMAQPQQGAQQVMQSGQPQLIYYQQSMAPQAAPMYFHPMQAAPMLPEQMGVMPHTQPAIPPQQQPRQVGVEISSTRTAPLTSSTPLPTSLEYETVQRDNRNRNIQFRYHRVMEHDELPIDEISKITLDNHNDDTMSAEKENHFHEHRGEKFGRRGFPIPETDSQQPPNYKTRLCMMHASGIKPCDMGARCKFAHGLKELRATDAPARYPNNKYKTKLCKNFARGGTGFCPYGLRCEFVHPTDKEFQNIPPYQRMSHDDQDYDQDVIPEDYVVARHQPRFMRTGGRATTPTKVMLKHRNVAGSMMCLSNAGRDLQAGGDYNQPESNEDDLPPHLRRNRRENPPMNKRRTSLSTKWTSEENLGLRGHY

Streptokinase A = target: T5, Streptokinase A (Streptococcus pyogenes serotype M1, UniProt P10520); test: viability-normalized secreted streptokinase activity reduction – plasminogen activation absorbance, OD405, dose response (AID 1914); format: functional, Streptococcus pyogenes M1 GAS;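 note: secreted streptokinase activity via plasminogen activation per viability signal from cell pellet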
T5 sequence (P10520 whole entry): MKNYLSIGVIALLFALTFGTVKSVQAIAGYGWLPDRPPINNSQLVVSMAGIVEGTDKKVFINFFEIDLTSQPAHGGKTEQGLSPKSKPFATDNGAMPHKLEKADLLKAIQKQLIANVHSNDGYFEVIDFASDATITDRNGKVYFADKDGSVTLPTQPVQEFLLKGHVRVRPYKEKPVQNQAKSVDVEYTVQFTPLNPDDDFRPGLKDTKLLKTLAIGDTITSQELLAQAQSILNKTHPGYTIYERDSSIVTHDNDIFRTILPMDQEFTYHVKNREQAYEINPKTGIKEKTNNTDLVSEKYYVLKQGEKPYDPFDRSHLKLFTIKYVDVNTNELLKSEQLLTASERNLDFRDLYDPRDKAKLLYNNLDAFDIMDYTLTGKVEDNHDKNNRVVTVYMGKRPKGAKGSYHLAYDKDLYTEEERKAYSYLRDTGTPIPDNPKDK

Streptococcus = test: GAS UMAA2166 growth inhibition – luminescence, BacTiterGlo, counter-screen for streptokinase expression inhibitor project, dose response (AID 1915); format: functional, organism-based;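 note: potency for reduction of bacterial viability or growth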
[9] = target: T6, Endoribonuclease toxin MazF (Escherichia coli K-12, UniProt P0AE70); test: activation of MazEF endoribonuclease cleavage – biochemical, fluorescence, single-stranded RNA substrate, uHTS hits, dose response (AID 588481); format: functional
T6 sequence (P0AE70 whole entry): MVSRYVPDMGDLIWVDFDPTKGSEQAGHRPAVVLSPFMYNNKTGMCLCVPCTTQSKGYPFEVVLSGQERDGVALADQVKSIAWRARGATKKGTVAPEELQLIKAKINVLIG

[10] = target: T6, Endoribonuclease toxin MazF; test: substrate-only fluorescence increase artefacts – biochemical, single-stranded RNase substrate, counter-screen for MazEF activator project, dose response (AID 588502); format: functional
[11] = target: T7, Calpain-2 catalytic subunit (Sus scrofa, UniProt P43367); test: m-calpain protease blockers, concentration series – biochemical, fluorogenic peptide substrate, dose response (AID 1420); format: functional
T7 sequence (P43367 whole entry): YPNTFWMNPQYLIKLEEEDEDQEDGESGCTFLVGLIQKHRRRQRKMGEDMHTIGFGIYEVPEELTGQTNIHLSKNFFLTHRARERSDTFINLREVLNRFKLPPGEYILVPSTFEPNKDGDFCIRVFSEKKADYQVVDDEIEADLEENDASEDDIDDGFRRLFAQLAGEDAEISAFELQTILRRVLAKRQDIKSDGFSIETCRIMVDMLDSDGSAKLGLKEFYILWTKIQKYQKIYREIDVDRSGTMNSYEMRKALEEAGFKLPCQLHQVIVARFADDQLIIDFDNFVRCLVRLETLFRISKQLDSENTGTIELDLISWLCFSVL

With `COc1cc(C2C(C#N)=C(N)N(c3sc4c(c3C#N)CCCC4)C3=C2C(=O)CC(C)(C)C3)cc(OC)c1OC` (centres undefined) the EC50 [1] was > 92.5 µM (inactive), the EC50 (Mu-type opioid receptor) was > 92.5 µM (inactive) and the EC50 [2] was > 92.5 µM (inactive). For the same compound, the AC50 (Cytochrome P450 2C9) was 12.6 µM (inconclusive).

In the case of `COc1cccc(NC(=O)CSc2nc3ccccc3c(=O)n2Cc2cccs2)c1`, the IC50 (Bcl-2-related protein A1) is reported as > 20 µM (inactive), the IC50 [3] is reported as 19.3 µM (active) and the IC50 [4] is reported as > 20 µM (inactive).

With `CC1=Nc2ccccc2/C1=C\c1nc(-c2ccc(F)cc2)oc1O` the EC50 [5] was > 300 µM (not active), the EC50 [6] was 8.82 µM (active) and the CC50 [7] was > 40 µM (active). For the same compound, the EC50 [8] was 5.53 µM (active), the EC50 (Streptokinase A) was 16.6 µM (active) and the EC50 (Streptococcus) was > 150 µM (not active). The EC50 [9] was > 99 µM (inactive) and the EC50 [10] was 55.9 µM (inactive).

In the case of `CN(C)C(CNC(C(=O)Nc1ccc([N+](=O)[O-])cc1Br)c1ccccc1)c1ccccc1` (centres undefined), the IC50 [11] is reported as 4.94 µM (not active), the EC50 [1] is reported as > 92.5 µM (inactive) and the EC50 (Mu-type opioid receptor) is reported as > 92.5 µM (inactive). The EC50 [2] was > 92.5 µM (inactive).
